In ChEMBL document CHEMBL5346897, “smProdrugs: A repository of small molecule prodrugs” (Eur J Med Chem, 2023) one finds solubility and logP data, which are given here for 1 compound.

≈ marks a conversion by molar mass, not a printed value.

Data set [1] can be described thus: Solubility of the compound. It is filed as physicochemical.
Data set [2] can be described thus: Lipophilicity, logP of the compound. It is filed as physicochemical. To be noted: octanol/water.

In turn, `CCOC(=O)OC(C)OC(=O)[C@@H]1N2C(=O)[C@@H](NC(=O)[C@H](N)c3ccccc3)[C@H]2SC1(C)C` (some centres not stated) [BACAMPICILLIN] gave a solubility in data set [1] of 123 µg/mL (≈ 264 µM). In data set [2], this compound registered a logP of 0.88.

The solubility is how much of the substance goes into solution per volume. As a reminder, the logP is the decadic logarithm of the partition coefficient of the neutral form, usually between octanol and water.
